Assay results published in ChEMBL document CHEMBL1123607, “Synthesis of potential anticancer agents: imidazo[4,5-c]pyridines and imidazo[4,5-b]pyridines” (J Med Chem, 1987).

Assays:
L1210 [1] = assay: Percent increase in life span at 40 mg/kg on a single dose schedule against L1210 leukemia; format: functional; details: Mus musculus
L1210 [2] = assay: Inhibition against the proliferation of L1210 leukemia; format: functional, cell-based; details: Mus musculus
L1210 [3] = assay: Mitotic index (MI); format: functional, Mus musculus
[4] = Cytotoxicity activity against the KB cell culture at less than 10 uM; format: functional; details: Homo sapiens, read-out: ED50 (the source's name)

Structure (SMILES): CCOC(=O)Nc1cc(NC(c2ccccc2)c2ccccc2)c2[nH]cnc2n1
- ILS at 40 mg/kg (L1210 [1]): 59%
- IC50 (L1210 [2]): 0.37 µM
- MI (L1210 [3]): 1.15 µM

Structure (SMILES): CCOC(=O)Nc1cc(Nc2ccccc2)c2[nH]cnc2n1
- EC50 [4]: 9.5 µM
